Results: publication PMC7126831 (Bioorganic & Medicinal Chemistry, 2013)

Molecular target: SARS-CoV PLpro (Severe acute respiratory syndrome coronavirus, UniProt P0C6U8)
Experiment: biochemical
Assay type: biochemical

Row | Compound | Kinetic mode | IC50 [µM]
1 | CC(C)(O)CCCC1(C)CCc2c(cc3c(c2O)C(=O)C[C@@H](c2ccc(O)c(O)c2)O3)O1 (stereo partly drawn) [Compound 1, (2S)-2-(3,4-dihydroxyphenyl)-5-hydroxy-8-(4-hydroxy-4-methylpentyl)-8-methyl-2,3,7,8-tetrahydropyrano[3,2-g]chromen-4(6H)-one] | Mixed (4.8) | –
2 | COc1cc([C@@H]2CC(=O)c3c(cc4c(c3O)CCC(C)(CCCC(C)(C)O)O4)O2)cc(O)c1OC (stereo partly drawn) [Compound 3, (2S)-5-hydroxy-2-(5-hydroxy-3,4-dimethoxyphenyl)-8-(4-hydroxy-4-methylpentyl)-8-methyl-2,3,7,8-tetrahydropyrano[3,2-g]chromen-4(6H)-one] | Mixed (5.0) | –
3 | COc1cc([C@@H]2CC(=O)c3c(cc4c(c3O)CCC(C)(CCCC(C)(C)O)O4)O2)cc(OC)c1O (stereo partly drawn) [Compound 4, (2S)-5-hydroxy-2-(4-hydroxy-3,5-dimethoxyphenyl)-8-(4-hydroxy-4-methylpentyl)-8-methyl-2,3,7,8-tetrahydropyrano[3,2-g]chromen-4(6H)-one] | Mixed (13.0) | –
4 | COc1cc([C@H]2Oc3cc4c(c(O)c3C(=O)[C@@H]2O)CCC(C)(CCCC(C)(C)O)O4)ccc1O (stereo partly drawn) [Compound 5, (2R,3R)-3,5-dihydroxy-2-(4-hydroxy-3-methoxyphenyl)-8-(4-hydroxy-4-methylpentyl)-8-methyl-2,3,7,8-tetrahydropyrano[3,2-g]chromen-4(6H)-one] | Mixed (3.7) | –
5 | COc1cc([C@H]2Oc3cc(O)c(C/C=C(\C)CCC=C(C)C)c(O)c3C(=O)[C@@H]2O)ccc1O [Compound 6, 3′-O-methyldiplacol] | Mixed (6.6) | –
6 | COc1ccc([C@H]2Oc3cc(O)c(C/C=C(\C)CCC=C(C)C)c(O)c3C(=O)[C@@H]2O)cc1O [Compound 7, 4′-O-methyldiplacol] | Mixed (6.3) | –
7 | COc1cc([C@@H]2CC(=O)c3c(cc(O)c(C/C=C(\C)CCC=C(C)C)c3O)O2)ccc1O [Compound 8, 3′-O-methyldiplacone] | Mixed (7.1) | –
8 | COc1cc(C2CC(=O)c3c(cc(O)c(C/C=C(\C)CCC=C(C)C)c3O)O2)cc(OC)c1O (centres unmarked) [Compound 12, 6-geranyl-4′,5,7-trihydroxy-3′,5′-dimethoxyflavanone] | – | 13.9 ± 0.18
